Test results published in US5098888A, “New heterocyclic tripeptide compounds” (Adir et Compagnie, priority 1989, dated 1992).

Assays:
Type in all cases: in vivo
mice [1] = assay: Interaction with clonidine (cerebral survival time on sudden cardiac arrest caused by MgCl2); settings: for antagonism of the effect of clonidine: simultaneously with clonidine
[2] = tested on: synaptosomal high-affinity choline uptake (HACU); assay: Barbiturate-induced cholinergic deficit in rats
From the text: This sodium-dependent uptake normally constitutes the limiting factor in acetyl choline synthesis.

mice [3] = assay: Oxotremorine-induced tremor in mice

Compound: Clc1cccc(Cl)c1N=C1NCCN1 [clonidine]
- increase in the cerebral survival time (mice [1]; sudden cardiac arrest caused by intravenous MgCl2): +60%

Compound: CCCC(C)C1(CC)C(=O)NC(=O)NC1=O (stereo not drawn) [pentobarbital]
- fall in synaptosomal high-affinity choline uptake (HACU) ([2]; 60 mg/kg ip, after 20 minutes of narcosis): -48%

Compound: NC(=O)[C@@H]1CCCN1C(=O)[C@H](Cc1c[nH]cn1)NC(=O)[C@@H]1CCC(=O)N1 [TRH, pyroglutamylhistidylprolinamide]
- antagonism of the effect of clonidine (mice [1]; 1 mg/kg ip): -20%
- antagonism of the effect of clonidine (mice [1]; 3 mg/kg ip): -80%
- effect on its own in the test (mice [1]; without clonidine): without having an effect on its own
- boosting of the tremor (mice [3]; 3 mg/kg ip): no longer apparent
- boosting of the tremor (mice [3]; 10 mg/kg ip 30 minutes before oxotremorine 0.5 mg/kg ip, measured at peak of action): +90%
- boosting of the tremor (mice [3]; administered orally (Example 1: 10 mg/kg)): no boosting effect
- boosting effect in the presence of scopolamine (mice [3]; scopolamine 0.01 mg/kg): persists
- inhibition of narcosis ([2]; 10 mg/kg ip simultaneously with pentobarbital): does not inhibit the narcosis
- counteraction/inhibition of the fall in HACU induced by the barbiturate ([2]; 10 mg/kg ip simultaneously with pentobarbital 60 mg/kg ip, HACU measured after 20 minutes of narcosis): -35%

Compound: Cn1cnc(C[C@H](NC(=O)[C@@H]2CCC(=O)N2)C(=O)N2[C@H]3CC[C@H](C3)[C@H]2C(N)=O)c1 [Example 1, (S)PyroGlu-(S)(N^.tau. -Me)His-(1S,3S,4R)ABH-NH2]
- induction of tremor by the compound itself (mice [3]; 10 mg/kg ip): without itself inducing tremor
